Experimental data as given in publication PMC3017812 (Chembiochem : a European journal of chemical biology, 2010).

Biological target: His-tagged MDM2 (Homo sapiens, UniProt Q00987)
Assay: competitive fluorescence polarization binding assay

| fold lower affinity for MDM2 relative to peptide 1 (fluorescence polarization assay, compared with unconstrained peptide 1) | Kd (read-out: KD, binding affinity for MDM2, competitive fluorescence polarization assay, His-tagged MDM2) | Compound |
| --- | --- | --- |
| seven-fold lower affinity |  | CC(C)C[C@H](NC(=O)[C@H](CC(=O)O)NC(=O)[C@H](CO)NC(=O)[C@H](Cc1ccccc1)N1C/C=C/CCC(=O)N[C@@H](CCC(=O)O)C(=O)N[C@@H](C)C1=O)C(=O)N[C@@H](Cc1c[nH]c2ccccc12)C(=O)N[C@@H](CCCCN)C(=O)N[C@@H](CC(C)C)C(=O)N[C@@H](CC(C)C)C(=O)N1CCC[C@H]1C(=O)N[C@@H](CCC(=O)O)C(=O)N[C@@H](CC(N)=O)C(=O)N[C@@H](CC(N)=O)C(=O)N[C@H](C(N)=O)C(C)C [HBS 2] |
|  | > 125 µM | HBS 3: negative control of 2, Phe-19 and Leu-26 mutated to alanine (EAASDLWKLAPENNV) |
